Patent US10226440B2, “Oral compositions comprising creatine” (Eddie O'Gorman Ltd, priority 2011, dated 2019)

Experiment: HPLC creatine levels after storage of other aqueous gels, jellies, suspensions and water controls
Assay type: physicochemical
Conditions: 10 g in 50 ml water, stored at 4 deg Celsius and room temperature, after one month
Method: A spectrophotometric scan of the colloidal creatine (10 mg ml^−1 dissolved in HPLC mobile phase), the CARG (1:15 dilution in HPLC mobile phase) and the HPLC mobile phase was performed to determine the appropriate detection wavelength for the HPLC assay. The scan was performed over a wavelength range from 190-950 nm. It was decided to use 220 nm as the detection wavelength.
Due to the viscous nature of the CARG it had to be diluted by a factor of 10 at the very least before samples could be injected onto the HPLC. In general a dilution factor of 1/15 was used in the analysis of the samples. The variation in peak area over the course of the experiment was not significant and gave a standard deviation of 1351126.18 (approximately equivalent to 0.13 mg ml^−1 creatine), see Tables 1 and 2.
Two aqueous gels, (A) and (B), were created containing colloidal creatine were made by mixing with water and heating to 55 deg Celsius:
This was stored in a 100 ml plastic dispensing container at room temperature. Creatine levels were measured after 3 months using the above HPLC method and found to have decreased by 22% at 4 deg Celsius and only 5% at room temperature.
Another oral product was made using colloidal creatine in standard commercially available jelly beans reconstituted in water. The concentrations of colloidal creatine per ml of reconstituted jelly bean were 0, 20, 50, 100 and 200 mg/ml. […]

CN(CC(=O)O)C(=N)N [creatine, creatine (2-(methylguanidino)ethanoic acid)]
loss of creatine content: 90%
